Experiment [1] has as its target T1, Mcl-1/Bim interaction, recombinant human Mcl-1 (171-327) (Homo sapiens, UniProt Q07820).
T1 construct: made in house
Description: Cell free Mcl-1: Bim Affinity Assay (Mcl-1 HTRF). Format: binding. A digest of the protocol: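 Read-out is time-resolved FRET after overnight incubation, using a biotin-labelled peptide from human Bim (51-76) as the binding partner; IC50 was derived from competition curves.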
(In general: In TR-FRET formats the signal depends on donor and acceptor labels being close together.)

In experiment [2] the test system is OPM-2 human multiple myeloma cell line. Description: Cell Viability Assay (OPM-2 10 FBS). To be noted: OPM-2 cells, CellTiter-Glo. Format: cell-based. A digest of the protocol: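 Plated at 3000 cells/well in 10% FBS complete medium, the cells received a serial compound dilution series and incubated 16 h at 37 °C with 5% CO2. CellTiter-Glo was then added; IC50 values were fitted with a logistic 4-parameter model.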

Where [3] appears, read: cell free Mcl-1:Bim TR-FRET, recombinant human Mcl-1 (171-327).
The mark [4] stands for this setting: Homo sapiens, OPM-2, 16 h, 16 h.
Where [5] appears, read: TR-FRET, 0.1 nM Mcl-1 (171-327), 0.05 nM biotin-Bim (51-76).
[6] abbreviates: Homo sapiens, OPM-2, 16 h, 16 h incubation.

Results on 22 compounds are retold here after patent US12091425B2 (AMGEN INC., priority 2016, dated 2024).

As a reminder, the IC50 is the concentration at which inhibition is half-maximal.

T1 sequence (Q07820 171-327): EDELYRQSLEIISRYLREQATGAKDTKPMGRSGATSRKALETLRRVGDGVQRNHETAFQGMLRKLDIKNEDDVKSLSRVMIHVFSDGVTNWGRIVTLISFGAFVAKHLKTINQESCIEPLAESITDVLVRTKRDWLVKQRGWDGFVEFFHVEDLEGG

As to `CC1CC=CC(O)C2CCC2CN2CC3(CCCc4cc(Cl)ccc43)COc3ccc(cc32)C(=O)NS(=O)(=O)C1CC(F)(F)F` (single isomer, unassigned) [Example 663], the IC50 was determined as 0.312 nM in experiment [1] (setting [3]) and 3110 nM in experiment [2] (setting [4]).

As for `O=C1NS(=O)(=O)[C@H](CC2CCOCC2)CC/C=C/[C@H](O)[C@@H]2CC[C@H]2CN2C[C@@]3(CCCc4cc(Cl)ccc43)COc3ccc1cc32` (single isomer, unassigned) [Example 186], the IC50 is 7.91 nM in experiment [1] (setting [5]) and 4660 nM in experiment [2] (16 h).

In the case of `COCCN1[C@@H](C)C/C=C/[C@H](O)[C@@H]2CC[C@H]2CN2C[C@@]3(CCCc4cc(Cl)ccc43)COc3ccc(cc32)C(=O)NS1(=O)=O` [Example 26, (1S,3′R,6′R,7′S,8′E,11′S)-6-chloro-7′-hydroxy-12′-(2-methoxyethyl)-11′-methyl-3,4-dihydro-2H,15′H-spiro[naphthalene-1,22′-[20]oxa[13]thia[1,12,14]triazatetracyclo[14.7.2.0^3,6.0^19,24]pentacosa[8,16,18,24]tetraen]-15′-one 13,13′-dioxide], the IC50 was determined as 0.205 nM in experiment [1] (setting [5]) and 312 nM in experiment [2] (setting [4]).

Take `C[C@@H]1[C@@H](C)S(=O)(=O)NC(=O)c2ccc3c(c2)N(C[C@@H]2CC[C@H]2[C@@H](OCC(=O)O)/C=C/[C@@H]1C)C[C@@]1(CCCc2cc(Cl)ccc21)CO3` [Example 1051, (((1S,3′R,6′R,7′S,8′E,10′S,11′S,12′R)-6-chloro-10′,11′,12′-trimethyl-13′,13′-dioxido-15′-oxo-3,4-dihydro-2H-spiro[naphthalene-1,22′-[20]oxa[13]thia[1,14]diazatetracyclo[14.7.2.0^3,6.0^19,24]pentacosa [8,16,18,24]tetraen]-7′-yl)oxy)acetic Acid]: the IC50 in experiment [1] (setting [5]) stood at 0.0197 nM; in experiment [2] (setting [6]), 1900 nM.

Regarding `O=C1NS(=O)(=O)C(c2ccccc2)CC/C=C/[C@H](O)[C@@H]2CC[C@H]2CN2C[C@@]3(CCCc4cc(Cl)ccc43)COc3ccc1cc32` (single isomer, unassigned) [Example 674], the IC50 is 8.2 nM in experiment [1] (setting [3]) and 1090 nM in experiment [2] (16 h).

As to `C[C@@H]1[C@@H](C)C[C@H](CC#N)/C=C/[C@@H]2CC[C@H]2CN2C[C@@]3(CCCc4cc(Cl)ccc43)COc3ccc(cc32)C(=O)NS1(=O)=O` [Example 1075, ((1S,3′R,6′S,7′E,9′R,11′S,12′R)-6-chloro-11′,12′-dimethyl-13′,13′-dioxido-15′-oxo-3,4-dihydro-2H-spiro[naphthalene-1,22′-[20]oxa[13]thia[1,14]diazatetracyclo[14.7.2.0^3,6.0^19,24]pentacosa [7,16,18,24]tetraen]-9′-yl)acetonitrile], the IC50 in experiment [1] (setting [5]) turned out to be 6.15 nM; in experiment [2] (setting [6]) it was 2150 nM.

With `C[C@H](O)C[C@@H]1CC/C=C/[C@H](O)[C@@H]2CC[C@H]2CN2C[C@@]3(CCCc4cc(Cl)ccc43)COc3ccc(cc32)C(=O)NS1(=O)=O` (single isomer, unassigned) [Example 546], the IC50 is 0.28 nM in experiment [1] (setting [3]) and 854 nM in experiment [2] (16 h).

For `C[C@@H]1[C@@H](C)C/C=C/[C@H](OCC(=O)N2CC(O)C2)[C@@H]2CC[C@H]2CN2C[C@@]3(CCCc4cc(Cl)ccc43)COc3ccc(cc32)C(=O)NS1(=O)=O` [Example 304, (1S,3′R,6′R,7′S,8′E,11′S,12′R)-6-chloro-7′-(2-(3-hydroxy-1-azetidinyl)-2-oxoethoxy)-11′,12′-dimethyl-3,4-dihydro-2H,15′H-spiro[naphthalene-1,22′-[20]oxa[13]thia[1,14]diazatetracyclo[14.7.2.0^3,6.0^19,24]pentacosa [8,16,18,24]tetraen]-15′-one 13′,13′-dioxide], the IC50 in experiment [1] (setting [5]) stood at 0.151 nM; in experiment [2] (setting [4]), 2280 nM.

For `CC[C@@H]1CC/C=C/[C@H](OCc2cc(C)nn2C)[C@@H]2CC[C@H]2CN2C[C@@]3(CCCc4cc(Cl)ccc43)COc3ccc(cc32)C(=O)NS1(=O)=O` [Example 967, (1S,3′R,6′R,7′S,8′E,12′R)-6-chloro-7′-((1,3-dimethyl-1H-pyrazol-5-yl)methoxy)-12′-ethyl-3,4-dihydro-2H,15′H-spiro[naphthalene-1,22′-[20]oxa[13]thia[1,14]diazatetracyclo[14.7.2.0^3,6.0^19,24]pentacosa [8,16,18,24]tetraen]-15′-one 13′,13′-dioxide], the figures for the IC50 in experiment [1] (setting [5]) and in experiment [2] (setting [6]) were 1.06 nM and 461 nM, respectively.

As for “(1S,3′R,6′R,9′R)-6-chloro-9′-methyl-3,4-dihydro-2H,15′H-spiro[naphthalene-1,22′-[20]oxa[13]thia[1,14]diazatetracyclo[14.7.2.0^3,6.0^19,24]pentacosa [16,18,24]trien]-15′-one 13′,13′-dioxide and (1S,3′R,6′R,9′S)-6-chloro-9′-methyl-3,4-dihydro-2H,15′H-spiro[naphthalene-[20]oxa[13]thia[1,14]diazatetracyclo[14.7.2.0^3,6.0^19,24]pentacosa [16,18,24]trien]-15′-one 13′,13′-dioxide [Example 276]”, the IC50 in experiment [1] (setting [5]) was found to be 13.2 nM; in experiment [2] (16 h) it was 6410 nM.

On to `CC[C@@H]1CC/C=C/[C@H](OCc2ncccn2)[C@@H]2CC[C@H]2CN2C[C@@]3(CCCc4cc(Cl)ccc43)COc3ccc(cc32)C(=O)NS1(=O)=O` [Example 977, (1S,3′R,6′R,7′S,8′E,12′R)-6-chloro-12′-ethyl-7′-(2-pyrimidinylmethoxy)-3,4-dihydro-2H,15′H-spiro[naphthalene-1,22′-[20]oxa[13]thia[1,14]diazatetracyclo[14.7.2.0^3,6.0^19,24]pentacosa [8,16,18,24]tetraen]-15′-one 13′,13′-dioxide], for which the IC50 in experiment [1] (setting [5]) was 0.329 nM; in experiment [2] (setting [6]), 266 nM.

As to `O=C1NS(=O)(=O)[C@H]2C[C@@H](CC[C@H](O)[C@@H]3CC[C@H]3CN3C[C@@]4(CCCc5cc(Cl)ccc54)COc4ccc1cc43)C2` [Example 101, (1S,3′R,6′R,7′S,10′S,12′S)-6-chloro-7′-hydroxy-3,4-dihydro-2H,15′H-spiro[naphthalene-1,22′-[20]oxa[13]thia[1,14]diazapentacyclo[14.7.2.1^10,120^3,6.0^19,24]hexacosa[16,18,24]trien]-15′-one 13′,13′-dioxide], the IC50 in experiment [1] (setting [5]) was 2.58 nM; in experiment [2] (setting [4]), 13000 nM.

Consider `C[C@H]1C/C=C/[C@H](O)[C@@H]2CC[C@H]2CN2C[C@@]3(CCCc4cc(Cl)ccc43)COc3ccc(cc32)C(=O)NS(=O)(=O)N1C` [Example 83, (1S,3′R,6′R,7′S,8′E,11′S)-6-chloro-7′-hydroxy-11′,12′-dimethyl-3,4-dihydro-2H,15′H-spiro[naphthalene-1,22′-[20]oxa[13]thia[1,12,14]triazatetracyclo[14.7.2.0^3,6.0^19,24]pentacosa[8,16,18,24]tetraen]-15′-one 13′,13′-dioxide], for which the IC50 in experiment [1] (setting [5]) stood at 0.419 nM; in experiment [2] (setting [4]), 487 nM.

With `CC(C)OC(=O)CC1C(C)CC=CC(O)C2CCC2CN2CC3(CCCc4cc(Cl)ccc43)COc3ccc(cc32)C(=O)NS1(=O)=O` (single isomer, unassigned) [Example 567], the IC50 came out at 3.69 nM in experiment [1] (setting [3]) and 4510 nM in experiment [2] (16 h).

As for `COC1C=CCC(OC)C(CC2CCCO2)S(=O)(=O)NC(=O)c2ccc3c(c2)N(CC2CCC21)CC1(CCCc2cc(Cl)ccc21)CO3` (single isomer, unassigned) [Example 642], the figures for the IC50 in experiment [1] (setting [3]) and in experiment [2] (16 h) were 0.539 nM and 351 nM, respectively.

For `C[C@@H]1[C@@H](C)C[C@H](CC(=O)N2CC(O)C2)/C=C/[C@@H]2CC[C@H]2CN2C[C@@]3(CCCc4cc(Cl)ccc43)COc3ccc(cc32)C(=O)NS1(=O)=O` [Example 1074, (1S,3′R,6′S,7′E,9′R,11′S,12′R)-6-chloro-9′-(2-(3-hydroxy-1-azetidinyl)-2-oxoethyl)-11′,12′-dimethyl-3,4-dihydro-2H,15′H-spiro[naphthalene-1,22′-[20]oxa[13]thia[1,14]diazatetracyclo[14.7.2.0^3,6.0^19,24]pentacosa [7,16,18,24]tetraen]-15′-one 13′,13′-dioxide], the IC50 is 0.988 nM in experiment [1] (setting [5]) and 3850 nM in experiment [2] (setting [6]).

In the case of `COC(=O)C[C@H]1CC/C=C/[C@H](O)[C@@H]2CC[C@H]2CN2C[C@@]3(CCCc4cc(Cl)ccc43)COc3ccc(cc32)C(=O)NS1(=O)=O` [Example 620], the IC50 in experiment [1] (setting [3]) was determined as 0.71 nM; in experiment [2] (16 h) it was 4080 nM.

With `O=C1NS(=O)(=O)C2COCC2CC=CC(O)C2CCC2CN2CC3(CCCc4cc(Cl)ccc43)COc3ccc1cc32` (single isomer, unassigned) [Example 1036], the IC50 worked out at 1.36 nM in experiment [1] (setting [5]) and 11300 nM in experiment [2] (setting [6]).

On to `CC1C(C2CC2)CC=CC(O)C2CCC2CN2CC3(CCCc4cc(Cl)ccc43)COc3ccc(cc32)C(=O)NS1(=O)=O` (single isomer, unassigned) [Example 677], for which the IC50 worked out at 9.57 nM in experiment [1] (setting [3]) and 3550 nM in experiment [2] (setting [4]).

Take `O=C1NS(=O)(=O)N(CC2CCCO2)C/C=C/[C@H](O)[C@@H]2CC[C@H]2CN2C[C@@]3(CCCc4cc(Cl)ccc43)COc3ccc1cc32` (mixture of isomers) [Example 691]: the IC50 in experiment [1] (setting [3]) worked out at 1.81 nM; in experiment [2] (setting [4]), 2330 nM.

For the compound `COC(=O)CC1CCC=CC(O)C2CCC2CN2CC3(CCCc4cc(Cl)ccc43)COc3ccc(cc32)C(=O)NS1(=O)=O` (single isomer, unassigned) [Example 619], the IC50 is 0.187 nM in experiment [1] (setting [3]) and 401 nM in experiment [2] (16 h).

Regarding `CC1CC=CC(OCC(C)N2CCOCC2)C2CCC2CN2CC3(CCCc4cc(Cl)ccc43)COc3ccc(cc32)C(=O)NS(=O)(=O)C1CC1CC1` (centres unmarked) [Example 387], the IC50 stood at 1.65 nM in experiment [1] (setting [5]) and 1250 nM in experiment [2] (setting [4]).
